How the values were obtained:
[1] = target: T1, Sodium channel protein type 9 subunit alpha (Homo sapiens, UniProt Q15858); test: Inhibitory constant against voltage-gated sodium channel Nav1.7 in electrophysiology assays (EP); format: functional
[2] = target: T1, Sodium channel protein type 9 subunit alpha; test: In vitro inhibitory concentration against voltage-gated sodium channel Nav1.7 in voltage-ion-probe-reader (VIPR) assay; format: functional
[3] = Bioavailability in rat; format: ADME, organism-based; details: in vivo
[4] = Half life period of the compound was determined in rat; format: ADME; details: in vivo
[5] = Clearance value of the compound was determined in plasma of rat; format: ADME, organism-based; details: read-out: Clp

T1 sequence (Q15858 whole entry): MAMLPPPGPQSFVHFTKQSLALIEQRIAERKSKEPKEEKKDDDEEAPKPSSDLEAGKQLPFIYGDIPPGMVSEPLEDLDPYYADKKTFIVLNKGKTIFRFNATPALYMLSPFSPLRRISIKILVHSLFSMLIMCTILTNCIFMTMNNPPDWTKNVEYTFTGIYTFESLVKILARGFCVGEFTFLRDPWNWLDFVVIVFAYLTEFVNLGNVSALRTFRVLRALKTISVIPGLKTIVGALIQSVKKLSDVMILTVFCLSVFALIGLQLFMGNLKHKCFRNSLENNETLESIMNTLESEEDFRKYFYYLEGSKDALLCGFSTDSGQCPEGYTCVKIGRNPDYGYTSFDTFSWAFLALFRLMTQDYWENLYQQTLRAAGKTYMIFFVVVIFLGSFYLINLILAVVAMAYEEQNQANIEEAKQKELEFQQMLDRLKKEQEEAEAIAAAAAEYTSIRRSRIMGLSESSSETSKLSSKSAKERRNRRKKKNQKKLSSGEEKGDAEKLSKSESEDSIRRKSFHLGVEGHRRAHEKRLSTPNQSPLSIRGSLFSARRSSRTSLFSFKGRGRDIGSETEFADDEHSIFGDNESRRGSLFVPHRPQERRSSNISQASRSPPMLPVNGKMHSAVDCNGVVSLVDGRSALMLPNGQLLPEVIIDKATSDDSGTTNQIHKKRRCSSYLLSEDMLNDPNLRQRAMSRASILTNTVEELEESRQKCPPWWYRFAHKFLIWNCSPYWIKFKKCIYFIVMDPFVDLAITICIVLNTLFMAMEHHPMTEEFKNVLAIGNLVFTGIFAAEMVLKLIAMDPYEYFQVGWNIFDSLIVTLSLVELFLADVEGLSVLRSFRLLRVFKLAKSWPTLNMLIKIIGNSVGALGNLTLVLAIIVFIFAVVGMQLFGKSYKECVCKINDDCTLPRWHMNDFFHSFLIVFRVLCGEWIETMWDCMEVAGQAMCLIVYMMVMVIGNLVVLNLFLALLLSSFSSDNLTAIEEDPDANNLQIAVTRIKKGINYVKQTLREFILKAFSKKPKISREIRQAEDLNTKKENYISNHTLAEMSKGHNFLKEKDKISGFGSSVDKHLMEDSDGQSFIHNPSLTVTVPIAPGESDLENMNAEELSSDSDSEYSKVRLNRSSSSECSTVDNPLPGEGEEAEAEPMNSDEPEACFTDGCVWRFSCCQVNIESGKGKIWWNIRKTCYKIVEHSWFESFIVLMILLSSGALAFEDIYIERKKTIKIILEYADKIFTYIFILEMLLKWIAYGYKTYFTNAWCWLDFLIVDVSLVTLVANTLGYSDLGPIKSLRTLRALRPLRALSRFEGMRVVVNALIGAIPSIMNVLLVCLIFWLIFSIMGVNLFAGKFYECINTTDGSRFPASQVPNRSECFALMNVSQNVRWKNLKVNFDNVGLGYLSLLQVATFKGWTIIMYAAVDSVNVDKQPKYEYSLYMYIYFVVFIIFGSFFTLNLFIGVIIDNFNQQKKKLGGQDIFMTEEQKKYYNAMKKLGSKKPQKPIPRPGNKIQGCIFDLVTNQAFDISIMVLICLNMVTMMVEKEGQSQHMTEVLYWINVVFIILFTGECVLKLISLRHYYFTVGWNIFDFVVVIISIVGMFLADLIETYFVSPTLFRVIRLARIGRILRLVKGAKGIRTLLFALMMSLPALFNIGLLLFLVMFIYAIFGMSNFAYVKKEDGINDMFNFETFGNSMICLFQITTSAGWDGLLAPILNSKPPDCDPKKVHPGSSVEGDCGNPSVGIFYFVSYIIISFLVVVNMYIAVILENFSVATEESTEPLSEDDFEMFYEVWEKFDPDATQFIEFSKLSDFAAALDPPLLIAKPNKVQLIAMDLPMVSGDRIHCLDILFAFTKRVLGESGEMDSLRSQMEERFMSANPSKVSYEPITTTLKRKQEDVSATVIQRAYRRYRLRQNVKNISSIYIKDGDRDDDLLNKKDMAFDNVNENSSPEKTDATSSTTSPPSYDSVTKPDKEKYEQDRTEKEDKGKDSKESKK

Compound	Ki [1]	IC50 [2]	bioavailability [3]	half-life [4]	clearance [5]
NS(=O)(=O)c1ccccc1-c1ccc(CNC(=O)/C=C\C(=O)NCc2ccc(-c3cccs3)s2)cc1	410 nM	520 nM	–	–	–
CC(C(=O)NCc1ccc(-c2ccccc2S(N)(=O)=O)cc1)C(C)C(=O)NCc1ccc(-c2cccs2)s1 (stereo not drawn)	–	1400 nM	–	–	–
NS(=O)(=O)c1ccccc1-c1ccc(CNC(=O)CC(=O)NCc2ccc(-c3cccs3)s2)cc1	–	860 nM	–	–	–
NS(=O)(=O)c1ccccc1-c1ccc(CNC(=O)CCC(=O)NCc2ccc(-c3cccs3)s2)cc1	150 nM	150 nM	1.9%	30 min	68 mL/min/kg
CC(C)(CC(=O)NCc1ccc(-c2ccccc2S(N)(=O)=O)cc1)C(=O)NCc1ccc(-c2cccs2)s1	–	2300 nM	–	–	–
CC(NC(=O)[C@H]1CCC[C@@H]1C(=O)NCc1ccc(-c2ccccc2S(N)(=O)=O)cc1)c1ccc(-c2cccs2)s1 (mixture of isomers)	–	10000 nM	–	–	–
CC(NC(=O)[C@H]1CCC[C@@H]1C(=O)N(C)Cc1ccc(-c2ccccc2S(N)(=O)=O)cc1)c1ccc(-c2cccs2)s1 (mixture of isomers)	–	10000 nM	–	–	–
CN(Cc1ccc(-c2cccs2)s1)C(=O)[C@H]1CCC[C@@H]1C(=O)NCc1ccc(-c2ccccc2S(N)(=O)=O)cc1 (racemic)	–	5300 nM	–	–	–
CN(Cc1ccc(-c2ccccc2S(N)(=O)=O)cc1)C(=O)[C@H]1CCC[C@@H]1C(=O)N(C)Cc1ccc(-c2cccs2)s1 (racemic)	–	> 10000 nM	–	–	–
NS(=O)(=O)c1ccccc1-c1ccc(CNC(=O)[C@H]2CCC[C@@H]2C(=O)NCc2ccc(-c3cccs3)s2)cc1 (racemic)	60 nM	370 nM	1.2%	18 min	39 mL/min/kg
NS(=O)(=O)c1ccccc1-c1ccc(CNC(=O)[C@H]2CCC[C@@H]2C(=O)NCc2cccc(OC(F)(F)F)c2)cc1 (racemic)	–	1100 nM	–	–	–
NS(=O)(=O)c1ccccc1-c1ccc(CNC(=O)[C@H]2CCC[C@@H]2C(=O)NCc2ccc(-c3ccccc3C(F)(F)F)cc2)cc1 (racemic)	510 nM	370 nM	–	–	–
NS(=O)(=O)c1ccccc1-c1ccc(CNC(=O)[C@H]2CCC[C@@H]2C(=O)NCc2ccc(OC(F)(F)F)cc2)cc1 (racemic)	360 nM	300 nM	–	–	–
COc1ccccc1-c1ccc(CNC(=O)[C@H]2CCC[C@@H]2C(=O)NCc2ccc(-c3ccccc3S(N)(=O)=O)cc2)cc1 (racemic)	690 nM	660 nM	–	–	–
CN(Cc1ccc(-c2ccccc2S(N)(=O)=O)cc1)C(=O)[C@H]1CCC[C@@H]1C(=O)NCc1cccc(OC(F)(F)F)c1 (racemic)	530 nM	1300 nM	–	–	–
C=C1[C@H](C(=O)NCc2ccc(-c3ccccc3S(N)(=O)=O)cc2)[C@H]1C(=O)NCc1ccc(-c2cccs2)s1 (racemic)	5700 nM	840 nM	–	–	–
NS(=O)(=O)c1ccccc1-c1ccc(CNC(=O)[C@H]2CCC[C@@H]2C(=O)NCc2ccc([N+](=O)[O-])cc2)cc1 (racemic)	2000 nM	2800 nM	–	–	–
CN(Cc1ccc(-c2ccccc2S(N)(=O)=O)cc1)C(=O)[C@H]1CCC[C@@H]1C(=O)NCc1ccc(-c2cccs2)s1 (racemic)	–	760 nM	3.3%	72 min	13 mL/min/kg
CN(Cc1ccc(-c2ccccc2S(N)(=O)=O)cc1)C(=O)[C@H]1CCC[C@@H]1C(=O)NCc1ccc(OC(F)(F)F)cc1 (racemic)	210 nM	830 nM	44%	58.8 min	14 mL/min/kg
NS(=O)(=O)c1ccccc1-c1ccc(CNC(=O)[C@H]2CCC[C@H]2C(=O)NCc2ccc(-c3cccs3)s2)cc1 (racemic)	670 nM	1600 nM	–	–	–

Now from value to compound:

Ki [1]	IC50 [2]	bioavailability [3]	half-life [4]	clearance [5]	Compound
–	–	27%	30 min	141 mL/min/kg	CN(Cc1ccc(-c2ccccc2S(N)(=O)=O)cc1)C(=O)CCC(=O)NCc1cccc(OC(F)(F)F)c1
6200 nM	2900 nM	–	–	–	NS(=O)(=O)c1ccccc1-c1ccc(CNC(=O)c2cccc(C(=O)NCc3ccc(-c4cccs4)s3)c2)cc1
–	3200 nM	–	–	–	NS(=O)(=O)c1ccccc1-c1ccc(CNC(=O)CCCC(=O)NCc2ccc(-c3cccs3)s2)cc1
140 nM	2200 nM	–	–	–	NS(=O)(=O)c1ccccc1-c1ccc(CNC(=O)c2ccccc2C(=O)NCc2ccc(-c3cccs3)s2)cc1
50 nM	1400 nM	–	–	–	CC(NC(=O)[C@H]1CCC[C@@H]1C(=O)NCc1ccc(-c2cccs2)s1)c1ccc(-c2ccccc2S(N)(=O)=O)cc1 (mixture of isomers)
280 nM	2500 nM	–	–	–	CN(Cc1ccc(-c2ccccc2S(N)(=O)=O)cc1)C(=O)[C@H]1CCC[C@@H]1C(=O)NCc1ccc(C(F)(F)F)cc1 (racemic)
–	5000 nM	–	–	–	NS(=O)(=O)c1ccccc1-c1ccc(CNC(=O)[C@H]2CCC[C@@H]2C(=O)NCc2ccccc2)cc1 (racemic)
–	> 10000 nM	–	–	–	CN(Cc1ccc(-c2ccccc2S(N)(=O)=O)cc1)C(=O)[C@H]1CCC[C@@H]1C(=O)NCc1ccccc1 (racemic)
–	210 nM	–	–	–	NS(=O)(=O)c1ccccc1-c1ccc(CNC(=O)[C@H]2CC[C@@H]2C(=O)NCc2ccc(-c3cccs3)s2)cc1 (racemic)
370 nM	2100 nM	–	–	–	Cc1ccccc1-c1ccc(CNC(=O)[C@H]2CCC[C@@H]2C(=O)NCc2ccc(-c3ccccc3S(N)(=O)=O)cc2)cc1 (racemic)
12000 nM	5000 nM	–	–	–	COc1ccc(CNC(=O)[C@H]2CCC[C@@H]2C(=O)NCc2ccc(-c3ccccc3S(N)(=O)=O)cc2)cc1 (racemic)
2100 nM	1400 nM	–	–	–	NS(=O)(=O)c1ccccc1-c1ccc(CNC(=O)[C@H]2CCCC[C@@H]2C(=O)NCc2ccc(-c3cccs3)s2)cc1 (racemic)
30 nM	660 nM	–	–	–	NS(=O)(=O)c1ccccc1-c1ccc(CNC(=O)[C@H]2CCC[C@@H]2C(=O)NCc2ccc(-c3ccccc3)cc2)cc1 (racemic)
2100 nM	10000 nM	–	–	–	COc1ccc(CNC(=O)[C@H]2CCC[C@@H]2C(=O)N(C)Cc2ccc(-c3ccccc3S(N)(=O)=O)cc2)cc1 (racemic)
